# Reference: US20230357253A1, “AGONISTS OF STIMULATOR OF INTERFERON GENES STING” (THE SCRIPPS RESEARCH INSTITUTE, priority 2020, published 2023)
# Tested on: THP-1 Lucia ISG cells
# Assay: ISRE-luciferase assay (ISG-LUC activation)
# Type: cell-based
# Conditions: Homo sapiens, THP1-Lucia ISG, 24 hours, luciferase reporter
# Description: ISRE-luciferase assay. THP-1 Lucia ISG cells were resuspended in low-serum growth media (2% FBS) at a density of 5×10^5 cells/ml and treated with test article or vehicle (DMSO). 50 μL of cells were seeded into each well of a 384-well white greiner plates and incubated for 24 hours. To evaluate expression of the luciferase reporter, 30 μl of Quanti-luc (Invivogen) detection reagent was added to each well and luminescence was read using an Envision plate reader (Perkin Elmer) set with an integration time of 0.1 seconds. For each cell type, luminescence signals for test article samples were normalized to vehicle-treated samples and reported as relative light units (RLU).
row,SMILES,EC50 [nM]
1,O=C(Nc1cc(CCCc2ccc(NC(=O)c3ccc4nnnn4n3)c(C(=O)O)c2)ccc1C(=O)O)c1ccc2nnnn2n1 [Compound 13],500 to 5000
2,"CC(CCOc1cc(NC(=O)c2ccc(-n3ccnc3)nn2)c(C(=O)O)cc1F)Oc1cc(NC(=O)c2ccc(-n3ccnc3)nn2)c(C(=O)O)cc1F (stereo not drawn) [Compound 5, 4,4′-(butane-1,3-diylbis(oxy))bis(2-(6-(1H-imidazol-1-yl)pyridazine-3-carboxamido)-5-fluorobenzoic acid)]",50 to 500
3,O=C(Nc1c(C(=O)O)cc(F)c(OCCCCOc2c(F)cc(C(=O)O)c(NC(=O)c3ccc(-n4ccnc4)nn3)c2F)c1F)c1ccc(-n2ccnc2)nn1 [Compound 38],50 to 500
4,COc1cc(C(=O)O)c(NC(=O)c2ccc(-n3ccnc3)nn2)cc1OCCc1cc(C(=O)O)c(NC(=O)c2ccc(-n3ccnc3)nn2)cc1C#N [Compound 130],50 to 500
5,O=C(Nc1cc(OCCCCOc2ccc(C(=O)O)c(NC(=O)c3ccc(-n4ccnc4)nn3)c2)ccc1C(=O)O)c1ccc(O)nn1 [Compound 35],> 5000
6,O=C(Nc1cc(CCCc2cc(C(=O)O)c(NC(=O)c3ccc(-n4ccnc4)nn3)cc2F)ccc1C(=O)O)c1ccc(-n2ccnc2)nn1 [Compound 78],50 to 500
7,O=C(Nc1cc(CCCc2cc(NC(=O)c3ccc(-n4ccnc4)nn3)c(C(=O)O)cc2F)ccc1C(=O)O)c1ccc(-n2ccnc2)nn1 [Compound 68],50 to 500
8,COC(=O)c1ccc(CCCc2ccc(NC(=O)c3ccc(-n4ccnc4)nn3)c(C(=O)OC)c2)cc1NC(=O)c1ccc(-n2ccnc2)nn1 [Compound 53],> 5000
9,O=C(Nc1c(C(=O)O)cc(F)c(OCCCCOc2c(F)cc(C(=O)O)c(NC(=O)c3ccc(-n4ccnc4)nn3)c2F)c1F)c1ccc(O)nn1 [Compound 39],> 5000
10,COC(=O)c1cc(F)c(OCCCCOc2cc(NC(=O)c3ccc(-n4ccnc4)nn3)c(C(=O)OC)cc2F)cc1NC(=O)c1ccc(-n2ccnc2)nn1 [Compound 34],> 5000
11,COC(=O)c1cc(Cl)c(CCCc2ccc(C(=O)OC)c(NC(=O)c3ccc4nnnn4n3)c2)cc1NC(=O)c1ccc(-n2ccnc2)nn1 [Compound 106],< 50

# Next, values leading:
row,EC50 [nM],SMILES
1,500 to 5000,O=C(Nc1cc(COc2cc(NC(=O)c3ccc(-n4ccnc4)nn3)c(C(=O)O)cc2F)c(F)cc1C(=O)O)c1ccc(-n2ccnc2)nn1 [Compound 175]
2,500 to 5000,COC(=O)c1cc(F)c(CCOc2cc(NC(=O)c3ccc(-n4ccnc4)nn3)c(C(=O)OC)cc2C#N)cc1NC(=O)c1ccc(-n2ccnc2)nn1 [Compound 163]
3,> 5000,O=C(Nc1cc(OCc2cc(C(=O)O)c(NC(=O)c3ccc(-n4ccnc4)nn3)cc2F)c(F)cc1C(=O)O)c1ccc(-n2ccnc2)nn1 [Compound 190]
4,50 to 500,C=C(Cc1cc(NC(=O)c2ccc(-n3ccnc3)nn2)c(C(=O)O)cc1F)Cc1cc(NC(=O)c2ccc(-n3ccnc3)nn2)c(C(=O)O)cc1F [Compound 199]
5,50 to 500,N#Cc1cc(C(=O)O)c(NC(=O)c2ccc(-n3ccnc3)nn2)cc1CCOc1cc(NC(=O)c2ccc(-n3ccnc3)nn2)c(C(=O)O)cc1F [Compound 162]
6,< 50,O=C(Nc1cc(CCSc2cc(NC(=O)c3ccc(-n4ccnc4)nn3)c(C(=O)O)cc2F)c(F)cc1C(=O)O)c1ccc(-n2ccnc2)nn1 [Compound 195]
7,< 50,O=C(Nc1cc(CCOc2cc(NC(=O)c3ccc(-n4ccnc4)nn3)c(C(=O)O)cc2F)c(F)cc1C(=O)O)c1ccc(-c2cn[nH]c2)nn1 [Compound 205]
8,500 to 5000,COC(=O)c1cc(F)c(OCCc2cc(NC(=O)c3ccc(-n4ccnc4)nn3)c(C(=O)OC)cc2C#N)cc1NC(=O)c1ccc(-n2ccnc2)nn1 [Compound 157]
9,> 5000,COC(=O)c1cc(F)c(OCCc2c(OC)cc(NC(=O)c3ccc(-n4ccnc4)nn3)c(C(=O)OC)c2F)cc1NC(=O)c1ccc(-n2ccnc2)nn1 [Compound 150]
10,50 to 500,O=C(Nc1cc(CCCc2cc(NC(=O)c3ccc(-n4ccnc4)nn3)c(C(=O)O)s2)c(F)cc1C(=O)O)c1ccc(-n2ccnc2)nn1 [Compound 164]
